Measured values published in PubChem BioAssay AID2060489 (Molecular Pharmacology Branch, DTP, NCI, 2025).

System: 922993-354-T-J3-PDC complex spheroids, viability
Experiment: Anticancer human tumor 922993-354-T-J3-PDC patient-derived endometrial carcinoma cell line growth inhibition [GQUAD]
Settings: for IC50: curve of first compound; for viability, T/C: stronger effect = lower value
In short: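 Multi-cell-type spheroids of tumor cells with HUVEC and mesenchymal stem cells, treated with drug combinations. Concentrations descend in half-log steps from near clinical Cmax, or from 10 microM where Cmax is unknown; viability read-out.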

[1] = second compound 0.0316 µM, first compound 0.0316 µM
[2] = second compound 0.0316 µM, first compound 0.1 µM
[3] = second compound 0.0316 µM, first compound 0.316 µM
[4] = second compound 0.0316 µM, first compound 1 µM
[5] = second compound 0.0316 µM, first compound 3.16 µM
[6] = second compound 0.0316 µM, first compound 10 µM
[7] = second compound 0.1 µM, first compound 0.0316 µM
[8] = second compound 0.1 µM, first compound 0.1 µM
[9] = second compound 0.1 µM, first compound 0.316 µM
[10] = second compound 0.1 µM, first compound 1 µM
[11] = second compound 0.1 µM, first compound 3.16 µM
[12] = second compound 0.1 µM, first compound 10 µM
[13] = second compound 0.316 µM, first compound 0.0316 µM
[14] = second compound 0.316 µM, first compound 0.1 µM
[15] = second compound 0.316 µM, first compound 0.316 µM
[16] = second compound 0.316 µM, first compound 1 µM
[17] = second compound 0.316 µM, first compound 3.16 µM
[18] = second compound 0.316 µM, first compound 10 µM
[19] = second compound 1 µM, first compound 0.0316 µM
[20] = second compound 1 µM, first compound 0.1 µM
[21] = second compound 1 µM, first compound 0.316 µM
[22] = second compound 1 µM, first compound 1 µM
[23] = second compound 1 µM, first compound 3.16 µM
[24] = second compound 1 µM, first compound 10 µM
[25] = second compound 3.16 µM, first compound 0.0316 µM
[26] = second compound 3.16 µM, first compound 0.1 µM
[27] = second compound 3.16 µM, first compound 0.316 µM
[28] = second compound 3.16 µM, first compound 1 µM
[29] = second compound 3.16 µM, first compound 3.16 µM
[30] = second compound 3.16 µM, first compound 10 µM
[31] = second compound 10 µM, first compound 0.0316 µM
[32] = second compound 10 µM, first compound 0.1 µM
[33] = second compound 10 µM, first compound 0.316 µM
[34] = second compound 10 µM, first compound 1 µM
[35] = second compound 10 µM, first compound 3.16 µM
[36] = second compound 10 µM, first compound 10 µM
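Further: spheroids exposed to compounds for seven days.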
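Wherever viability, T/C is given: 100% = DMSO vehicle control viability.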

CC(C)n1c(=O)n(C)c2cnc3cc(F)c(-c4ccc(OCCCN5CCCCC5)nc4)cc3c21 + Cc1[nH]c2ccc(F)cc2c1-c1nc2c3cccnc3c3ncccc3c2[nH]1
IC50 (second compound 0.0316 µM): > 10000 nM
IC50 (second compound 0.1 µM): > 10000 nM
IC50 (second compound 0.316 µM): > 10000 nM
IC50 (second compound 1 µM): > 10000 nM
IC50 (second compound 3.16 µM): > 10000 nM
IC50 (second compound 10 µM): > 10000 nM
viability, T/C [1]: 110%
viability, T/C [2]: 123%
viability, T/C [3]: 113%
viability, T/C [4]: 91.4%
viability, T/C [5]: 77.3%
viability, T/C [6]: 71.3%
viability, T/C [7]: 116%
viability, T/C [8]: 95.3%
viability, T/C [9]: 103%
viability, T/C [10]: 96.2%
viability, T/C [11]: 72.9%
viability, T/C [12]: 60.3%
viability, T/C [13]: 91.8%
viability, T/C [14]: 124%
viability, T/C [15]: 115%
viability, T/C [16]: 114%
viability, T/C [17]: 88.2%
viability, T/C [18]: 62.9%
viability, T/C [19]: 118%
viability, T/C [20]: 83.4%
viability, T/C [21]: 131%
viability, T/C [22]: 112%
viability, T/C [23]: 88.5%
viability, T/C [24]: 75.9%
viability, T/C [25]: 100%
viability, T/C [26]: 89.5%
viability, T/C [27]: 91.5%
viability, T/C [28]: 95.1%
viability, T/C [29]: 84.8%
viability, T/C [30]: 80.8%
viability, T/C [31]: 98.9%
viability, T/C [32]: 93.7%
viability, T/C [33]: 94%
viability, T/C [34]: 97.4%
viability, T/C [35]: 85.5%
viability, T/C [36]: 73.8%

CC1COCCN1c1cc(-c2ccnn2C)c2ccnc(-c3ccn[nH]3)c2n1 (centres undefined) + Cc1[nH]c2ccc(F)cc2c1-c1nc2c3cccnc3c3ncccc3c2[nH]1
IC50 (second compound 0.0316 µM): 188 nM
IC50 (second compound 0.1 µM): 234 nM
IC50 (second compound 0.316 µM): 280 nM
IC50 (second compound 1 µM): 243 nM
IC50 (second compound 3.16 µM): 188 nM
IC50 (second compound 10 µM): 216 nM
viability, T/C [1]: 84%
viability, T/C [2]: 59.3%
viability, T/C [3]: 44.3%
viability, T/C [4]: 23.6%
viability, T/C [5]: 21%
viability, T/C [6]: 16.5%
viability, T/C [7]: 82%
viability, T/C [8]: 66%
viability, T/C [9]: 45.9%
viability, T/C [10]: 25.4%
viability, T/C [11]: 20.9%
viability, T/C [12]: 21.8%
viability, T/C [13]: 108%
viability, T/C [14]: 76.3%
viability, T/C [15]: 50.5%
viability, T/C [16]: 22.7%
viability, T/C [17]: 17.5%
viability, T/C [18]: 16.5%
viability, T/C [19]: 93.2%
viability, T/C [20]: 67%
viability, T/C [21]: 49%
viability, T/C [22]: 21.5%
viability, T/C [23]: 20.1%
viability, T/C [24]: 15.1%
viability, T/C [25]: 98.2%
viability, T/C [26]: 65.6%
viability, T/C [27]: 37.6%
viability, T/C [28]: 25%
viability, T/C [29]: 27.2%
viability, T/C [30]: 21.4%
viability, T/C [31]: 104%
viability, T/C [32]: 70.7%
viability, T/C [33]: 39.4%
viability, T/C [34]: 24.8%
viability, T/C [35]: 26.2%
viability, T/C [36]: 16.6%
